Assay results taken from article PMC6458995, “MAP4K4 Inhibition Promotes Survival of Human Stem Cell-Derived Cardiomyocytes and Reduces Infarct Size In Vivo” (Cell Stem Cell, 2019).

How the values were obtained:
Experiment in all cases: Dundee kinase panel
Type in all cases: biochemical
Conditions in all cases: for remaining activity at 1 µM: read-out: residual activity
CSK = biological target: T1, CSK (Homo sapiens, UniProt P41240)
T1 construct: lines 1-140) and Reaction Biology
Protocol: (§1) Compounds were screened at 1 μM. For key hits, pIC50 values were then determined by HTRF as above. […] Stability in mouse and human liver microsomes was determined by Cyprotex.

RSK1 = biological target: T2, RSK1 (Homo sapiens, UniProt Q15418)
T2 construct: lines 1-140) and Reaction Biology
Protocol: as §1

JAK2 = biological target: T3, JAK2 (Homo sapiens, UniProt O60674)
T3 construct: lines 1-140) and Reaction Biology
T3 sequence (O60674 whole entry): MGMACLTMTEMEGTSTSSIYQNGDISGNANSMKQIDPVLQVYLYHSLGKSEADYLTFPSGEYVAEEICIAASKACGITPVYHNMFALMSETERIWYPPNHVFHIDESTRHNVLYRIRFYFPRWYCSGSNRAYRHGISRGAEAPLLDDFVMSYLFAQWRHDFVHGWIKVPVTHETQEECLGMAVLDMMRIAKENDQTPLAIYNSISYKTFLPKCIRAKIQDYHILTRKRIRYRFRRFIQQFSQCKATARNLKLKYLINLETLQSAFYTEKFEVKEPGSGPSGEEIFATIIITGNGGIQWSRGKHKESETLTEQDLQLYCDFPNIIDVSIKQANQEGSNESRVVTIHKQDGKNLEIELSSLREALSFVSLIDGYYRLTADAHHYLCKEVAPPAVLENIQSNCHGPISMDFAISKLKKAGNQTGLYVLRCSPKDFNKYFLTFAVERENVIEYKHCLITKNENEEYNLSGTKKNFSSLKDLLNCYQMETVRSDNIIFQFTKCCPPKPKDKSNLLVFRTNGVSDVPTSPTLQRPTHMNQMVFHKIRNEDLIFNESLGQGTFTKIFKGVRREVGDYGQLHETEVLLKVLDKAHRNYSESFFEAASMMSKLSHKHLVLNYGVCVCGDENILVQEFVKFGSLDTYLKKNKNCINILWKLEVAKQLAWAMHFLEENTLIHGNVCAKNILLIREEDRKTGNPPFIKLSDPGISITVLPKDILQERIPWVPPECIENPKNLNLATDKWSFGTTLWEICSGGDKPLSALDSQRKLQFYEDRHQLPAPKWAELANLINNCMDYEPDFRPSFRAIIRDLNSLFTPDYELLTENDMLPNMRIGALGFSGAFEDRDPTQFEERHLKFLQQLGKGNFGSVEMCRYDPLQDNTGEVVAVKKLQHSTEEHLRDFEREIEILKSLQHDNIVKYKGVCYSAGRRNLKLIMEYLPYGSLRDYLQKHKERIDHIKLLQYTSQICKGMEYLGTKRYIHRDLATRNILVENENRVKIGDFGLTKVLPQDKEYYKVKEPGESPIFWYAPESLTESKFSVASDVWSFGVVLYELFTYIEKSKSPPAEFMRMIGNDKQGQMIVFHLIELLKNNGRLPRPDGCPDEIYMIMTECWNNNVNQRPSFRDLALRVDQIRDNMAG
Protocol: as §1

GCK = biological target: T4, GCK (Homo sapiens, UniProt Q12851)
T4 construct: lines 1-140) and Reaction Biology
T4 sequence (Q12851 1-820): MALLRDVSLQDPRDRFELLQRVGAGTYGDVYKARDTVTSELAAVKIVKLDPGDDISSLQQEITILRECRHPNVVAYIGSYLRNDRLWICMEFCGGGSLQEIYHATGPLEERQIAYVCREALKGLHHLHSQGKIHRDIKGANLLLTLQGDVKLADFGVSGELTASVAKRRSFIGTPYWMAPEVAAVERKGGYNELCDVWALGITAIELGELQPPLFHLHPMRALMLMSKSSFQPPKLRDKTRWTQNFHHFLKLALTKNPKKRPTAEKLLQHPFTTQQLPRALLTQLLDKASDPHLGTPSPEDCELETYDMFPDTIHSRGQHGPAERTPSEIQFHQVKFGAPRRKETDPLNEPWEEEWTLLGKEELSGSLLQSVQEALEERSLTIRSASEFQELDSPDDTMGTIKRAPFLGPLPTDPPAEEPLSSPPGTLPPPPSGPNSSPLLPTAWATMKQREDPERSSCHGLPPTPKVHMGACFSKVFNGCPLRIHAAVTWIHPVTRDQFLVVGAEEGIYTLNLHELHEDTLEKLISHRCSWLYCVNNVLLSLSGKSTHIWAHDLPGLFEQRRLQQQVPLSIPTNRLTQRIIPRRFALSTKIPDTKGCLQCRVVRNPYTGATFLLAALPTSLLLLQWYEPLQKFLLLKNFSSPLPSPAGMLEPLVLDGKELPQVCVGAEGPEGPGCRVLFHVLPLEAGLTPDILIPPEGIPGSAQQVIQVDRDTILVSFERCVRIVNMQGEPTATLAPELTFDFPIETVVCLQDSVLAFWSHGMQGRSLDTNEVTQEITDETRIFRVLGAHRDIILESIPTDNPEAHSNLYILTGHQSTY
Protocol: as §1

TTBK2 = biological target: T5, TTBK2 (Homo sapiens, UniProt Q6IQ55)
T5 construct: lines 1-140) and Reaction Biology
T5 sequence (Q6IQ55 whole entry): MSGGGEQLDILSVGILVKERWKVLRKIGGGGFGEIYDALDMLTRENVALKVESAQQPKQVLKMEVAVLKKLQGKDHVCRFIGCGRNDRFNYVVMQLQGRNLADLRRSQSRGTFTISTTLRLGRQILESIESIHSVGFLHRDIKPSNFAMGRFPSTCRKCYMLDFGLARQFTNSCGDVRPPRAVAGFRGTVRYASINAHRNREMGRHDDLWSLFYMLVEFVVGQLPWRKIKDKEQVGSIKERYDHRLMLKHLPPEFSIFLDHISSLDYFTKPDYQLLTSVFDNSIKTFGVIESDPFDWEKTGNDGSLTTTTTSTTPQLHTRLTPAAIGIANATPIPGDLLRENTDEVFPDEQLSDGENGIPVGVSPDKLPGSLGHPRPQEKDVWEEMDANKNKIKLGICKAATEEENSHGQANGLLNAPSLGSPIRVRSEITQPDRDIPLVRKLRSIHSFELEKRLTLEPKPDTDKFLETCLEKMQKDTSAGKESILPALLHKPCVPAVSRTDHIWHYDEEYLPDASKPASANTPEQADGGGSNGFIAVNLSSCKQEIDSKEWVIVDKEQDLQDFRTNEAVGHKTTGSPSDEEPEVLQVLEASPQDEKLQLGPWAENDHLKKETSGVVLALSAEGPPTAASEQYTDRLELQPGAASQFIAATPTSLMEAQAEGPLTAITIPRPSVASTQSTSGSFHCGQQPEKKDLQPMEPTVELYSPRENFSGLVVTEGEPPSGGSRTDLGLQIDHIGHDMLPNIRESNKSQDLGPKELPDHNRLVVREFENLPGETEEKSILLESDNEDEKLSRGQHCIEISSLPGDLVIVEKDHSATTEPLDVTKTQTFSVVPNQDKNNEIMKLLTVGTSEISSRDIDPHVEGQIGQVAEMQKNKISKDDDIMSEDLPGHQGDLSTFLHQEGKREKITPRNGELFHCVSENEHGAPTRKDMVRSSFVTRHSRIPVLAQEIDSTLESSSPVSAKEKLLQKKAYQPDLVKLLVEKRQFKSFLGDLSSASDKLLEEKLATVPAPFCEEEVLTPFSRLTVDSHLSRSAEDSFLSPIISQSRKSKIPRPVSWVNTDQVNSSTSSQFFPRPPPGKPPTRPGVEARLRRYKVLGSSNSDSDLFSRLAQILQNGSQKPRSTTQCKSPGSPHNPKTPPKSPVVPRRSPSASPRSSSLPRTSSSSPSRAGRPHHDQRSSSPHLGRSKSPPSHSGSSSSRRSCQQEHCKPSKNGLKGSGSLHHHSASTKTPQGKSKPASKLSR
Protocol: as §1

PKBb = biological target: T6, PKBb (Homo sapiens, UniProt P31751)
T6 construct: lines 1-140) and Reaction Biology
T6 sequence (P31751 whole entry): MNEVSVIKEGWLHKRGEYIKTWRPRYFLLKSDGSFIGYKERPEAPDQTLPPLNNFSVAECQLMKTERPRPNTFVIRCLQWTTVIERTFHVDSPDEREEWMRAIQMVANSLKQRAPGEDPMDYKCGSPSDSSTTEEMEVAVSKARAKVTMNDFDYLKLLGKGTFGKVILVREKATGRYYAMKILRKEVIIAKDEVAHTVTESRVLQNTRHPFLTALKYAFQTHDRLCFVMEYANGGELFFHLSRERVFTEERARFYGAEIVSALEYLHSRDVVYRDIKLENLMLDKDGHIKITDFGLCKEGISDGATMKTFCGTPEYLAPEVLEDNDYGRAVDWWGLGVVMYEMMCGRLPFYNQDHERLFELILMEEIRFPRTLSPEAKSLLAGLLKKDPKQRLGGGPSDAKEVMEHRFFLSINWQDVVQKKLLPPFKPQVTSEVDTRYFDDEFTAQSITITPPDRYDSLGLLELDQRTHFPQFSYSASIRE
Protocol: as §1

CAMK1 = biological target: T7, CAMK1 (Homo sapiens, UniProt Q14012)
T7 construct: lines 1-140) and Reaction Biology
T7 sequence (Q14012 whole entry): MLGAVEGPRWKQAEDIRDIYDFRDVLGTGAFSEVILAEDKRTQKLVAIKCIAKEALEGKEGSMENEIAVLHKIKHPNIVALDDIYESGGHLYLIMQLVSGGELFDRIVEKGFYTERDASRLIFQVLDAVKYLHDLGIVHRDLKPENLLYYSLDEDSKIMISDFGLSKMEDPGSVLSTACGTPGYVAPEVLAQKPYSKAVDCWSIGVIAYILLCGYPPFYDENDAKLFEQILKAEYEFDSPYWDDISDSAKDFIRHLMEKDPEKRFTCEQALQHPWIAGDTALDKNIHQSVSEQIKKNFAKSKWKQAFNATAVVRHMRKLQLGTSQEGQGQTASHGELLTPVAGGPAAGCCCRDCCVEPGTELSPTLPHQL
Protocol: as §1

SYK = biological target: T8, SYK (Homo sapiens, UniProt P43405)
T8 construct: lines 1-140) and Reaction Biology
Protocol: as §1

MEKK1 = biological target: T9, MEKK1 (Homo sapiens, UniProt Q13233)
T9 construct: lines 1-140) and Reaction Biology
Protocol: as §1

BRSK2 = biological target: T10, BRSK2 (Homo sapiens, UniProt Q8IWQ3)
T10 construct: lines 1-140) and Reaction Biology
T10 sequence (Q8IWQ3 1-736): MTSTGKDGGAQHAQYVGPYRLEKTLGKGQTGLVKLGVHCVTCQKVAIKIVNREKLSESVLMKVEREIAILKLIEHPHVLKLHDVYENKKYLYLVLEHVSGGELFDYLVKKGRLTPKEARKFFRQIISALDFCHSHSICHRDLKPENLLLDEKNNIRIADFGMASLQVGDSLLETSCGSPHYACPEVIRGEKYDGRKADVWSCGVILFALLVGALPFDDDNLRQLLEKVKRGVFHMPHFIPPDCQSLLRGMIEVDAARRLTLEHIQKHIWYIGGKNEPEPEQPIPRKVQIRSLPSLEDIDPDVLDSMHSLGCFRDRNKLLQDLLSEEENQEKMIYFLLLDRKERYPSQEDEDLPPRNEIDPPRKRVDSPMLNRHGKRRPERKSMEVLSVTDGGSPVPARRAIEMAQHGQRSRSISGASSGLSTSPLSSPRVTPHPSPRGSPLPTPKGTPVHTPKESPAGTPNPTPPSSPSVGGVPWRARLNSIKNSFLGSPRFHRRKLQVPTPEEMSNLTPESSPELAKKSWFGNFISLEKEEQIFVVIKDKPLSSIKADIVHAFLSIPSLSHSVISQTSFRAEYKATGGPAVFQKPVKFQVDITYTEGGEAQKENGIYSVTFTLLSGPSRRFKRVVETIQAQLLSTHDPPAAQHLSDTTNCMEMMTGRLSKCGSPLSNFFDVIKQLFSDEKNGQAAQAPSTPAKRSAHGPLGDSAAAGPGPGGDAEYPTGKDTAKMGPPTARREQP
Protocol: as §1

PDGFRA = biological target: T11, PDGFRA (Homo sapiens, UniProt P16234)
T11 construct: lines 1-140) and Reaction Biology
T11 sequence (P16234 24-1089): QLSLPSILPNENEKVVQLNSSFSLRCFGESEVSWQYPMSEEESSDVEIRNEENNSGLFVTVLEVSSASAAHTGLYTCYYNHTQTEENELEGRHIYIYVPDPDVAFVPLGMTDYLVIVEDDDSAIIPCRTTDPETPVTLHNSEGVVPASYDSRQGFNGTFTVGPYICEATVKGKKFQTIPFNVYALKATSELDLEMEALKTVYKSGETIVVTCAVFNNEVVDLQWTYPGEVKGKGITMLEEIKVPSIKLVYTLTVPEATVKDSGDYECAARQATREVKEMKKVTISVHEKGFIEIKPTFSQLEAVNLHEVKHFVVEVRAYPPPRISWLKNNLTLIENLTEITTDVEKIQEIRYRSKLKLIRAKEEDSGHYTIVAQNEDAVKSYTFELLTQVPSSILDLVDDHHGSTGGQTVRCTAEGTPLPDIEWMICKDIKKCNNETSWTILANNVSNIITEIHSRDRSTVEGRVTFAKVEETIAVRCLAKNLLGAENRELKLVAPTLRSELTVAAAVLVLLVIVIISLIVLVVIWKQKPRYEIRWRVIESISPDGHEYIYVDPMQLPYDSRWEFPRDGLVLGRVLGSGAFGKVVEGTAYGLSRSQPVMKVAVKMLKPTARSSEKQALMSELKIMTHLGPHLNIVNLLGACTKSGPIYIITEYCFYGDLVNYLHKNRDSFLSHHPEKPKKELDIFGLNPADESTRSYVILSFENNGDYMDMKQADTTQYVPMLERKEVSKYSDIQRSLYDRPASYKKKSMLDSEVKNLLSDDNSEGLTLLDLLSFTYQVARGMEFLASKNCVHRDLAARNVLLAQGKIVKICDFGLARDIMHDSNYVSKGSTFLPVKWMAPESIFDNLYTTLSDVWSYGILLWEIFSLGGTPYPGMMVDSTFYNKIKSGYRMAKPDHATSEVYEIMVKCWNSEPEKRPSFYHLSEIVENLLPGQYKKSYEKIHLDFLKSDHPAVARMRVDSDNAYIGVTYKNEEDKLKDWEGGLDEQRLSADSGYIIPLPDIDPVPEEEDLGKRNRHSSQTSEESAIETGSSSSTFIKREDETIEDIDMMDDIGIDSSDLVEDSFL
Protocol: as §1

T1 sequence (P41240 whole entry): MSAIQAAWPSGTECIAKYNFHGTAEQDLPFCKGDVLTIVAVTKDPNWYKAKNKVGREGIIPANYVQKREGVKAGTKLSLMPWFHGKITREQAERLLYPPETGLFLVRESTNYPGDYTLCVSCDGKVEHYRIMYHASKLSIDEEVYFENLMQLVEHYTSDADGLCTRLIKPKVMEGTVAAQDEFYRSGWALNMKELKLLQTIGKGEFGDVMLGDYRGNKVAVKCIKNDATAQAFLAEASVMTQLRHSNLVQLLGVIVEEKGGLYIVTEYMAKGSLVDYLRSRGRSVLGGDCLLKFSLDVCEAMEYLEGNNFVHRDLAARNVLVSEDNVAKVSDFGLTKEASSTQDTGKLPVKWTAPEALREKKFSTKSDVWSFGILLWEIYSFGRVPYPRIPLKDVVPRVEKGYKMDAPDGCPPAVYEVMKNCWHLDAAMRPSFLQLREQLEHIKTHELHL

Structure (SMILES) | remaining activity at 1 µM (CSK) [%] | remaining activity at 1 µM (RSK1) [%] | remaining activity at 1 µM (JAK2) [%] | remaining activity at 1 µM (GCK) [%] | remaining activity at 1 µM (TTBK2) [%] | remaining activity at 1 µM (PKBb) [%] | remaining activity at 1 µM (CAMK1) [%] | remaining activity at 1 µM (SYK) [%] | remaining activity at 1 µM (MEKK1) [%] | remaining activity at 1 µM (BRSK2) [%] | remaining activity at 1 µM (PDGFRA) [%] | other results
COCCOc1ccc(-c2cn(-c3ccccc3)c3nc[nH]c(=O)c23)cc1 [DMX-5804, 5-[4-(2-methoxy-ethoxy)-phenyl]-7-phenyl-3,7-dihydro-pyrrolo[2,3-d]pyrimidin-4-one] | 103 | 86 | 70 | 36 | 108 | 116 | 114 | 96 | 111 | 92 | 88 | 
Oc1ncnc2c1c(-c1ccccc1)cn2-c1ccccc1 [F1386-0303, 5,7-diphenyl-7H-pyrrolo[2,3-d]pyrimidin-4-ol] | 97 | 89 | 94 | 39 | 99 | 95 | 97 | 112 | 97 | 91 | 93 | 
Nc1ncc(C(=O)NC2CN(C(=O)C3CC3)C2)c2ccc(-c3cccc(F)c3)nc12 [GNE-495] |  |  |  |  |  |  |  |  |  |  |  | residual activity (CSK; 1 μM): 94%; residual activity (RSK1; 1 μM): 65%; residual activity (JAK2; 1 μM): 76%; residual activity (GCK; 1 μM): 18%; residual activity (TTBK2; 1 μM): 116%; residual activity (PKBb; 1 μM): 99%; residual activity (CAMK1; 1 μM): 93%; residual activity (SYK; 1 μM): 94%; residual activity (MEKK1; 1 μM): 87%; residual activity (BRSK2; 1 μM): 77%; residual activity (PDGFRA; 1 μM): 97%
O=C1Nc2ccc(I)cc2/C1=C/c1cc(Br)c(O)c(Br)c1 [GW5074] | 52 | 32 | 82 | 60 | 83 | 69 | 70 | 72 | 5 | 75 | 24 | 
O=C1Cc2c([nH]c3ccc(Br)cc23)-c2ccccc2N1 [Kenpaullone] | 68 | 84 | 105 | 95 | 95 | 106 | 103 | 87 | 5 | 35 | 48 | 
